Experimental data: ChEMBL document CHEMBL1124880 (J Med Chem, 1990)

Columns and labels:
Rattus norvegicus = organism: Rattus norvegicus; test: Minimal effective dose in an rat anti-immobility effect using behavioral despair test; type: functional; details: read-out: MED
Adenosine receptor A1 = target: T1, Adenosine receptor A1 (Rattus norvegicus, UniProt P25099); test: Binding affinity towards the adenosine A1 receptor in cerebral cortices of Sprague-Dawley male rats using [3H]CHA as radioligand.
T1 sequence (P25099 whole entry): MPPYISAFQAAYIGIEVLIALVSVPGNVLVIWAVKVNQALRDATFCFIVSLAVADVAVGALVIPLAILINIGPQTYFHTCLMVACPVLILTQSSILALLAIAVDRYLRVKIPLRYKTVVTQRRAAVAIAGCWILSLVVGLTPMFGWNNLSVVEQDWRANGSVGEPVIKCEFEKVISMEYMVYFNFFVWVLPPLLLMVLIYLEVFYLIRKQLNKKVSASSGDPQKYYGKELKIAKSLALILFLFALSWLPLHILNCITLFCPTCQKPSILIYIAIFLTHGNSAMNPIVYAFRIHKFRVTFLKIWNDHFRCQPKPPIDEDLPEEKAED

Adenosine A2 receptor = Adenosine A2 receptor (Rattus norvegicus, UniProt P29276+P30543)

Compound	minimal effective dose (Rattus norvegicus)	IC50 (Adenosine receptor A1)	IC50 (Adenosine A2 receptor)
Cc1nnc2c(NC(C)C)nc3ccc(Cl)cc3n12	3.2 mg/kg	100 nM	
CCNc1nc2cc(F)ccc2n2c(CC)nnc12	≤ 32 mg/kg		
CC(=O)Nc1nc2ccc(F)cc2n2cnnc12	≤ 32 mg/kg		
CN(C)c1nc2ccc(F)cc2n2cnnc12	≤ 32 mg/kg		
Cc1nnc2c(N)nc3ccc(Cl)cc3n12	≤ 32 mg/kg	350 nM	
CCNc1nc2ccc(Cl)cc2n2c(-c3ccccc3)nnc12	> 32 mg/kg		
CCN(CC)c1nc2ccc(Cl)cc2n2c(C)nnc12	≤ 32 mg/kg	17000 nM	
CCNc1nc2ccc(Cl)cc2n2c(CC)nnc12	3.2 mg/kg		
CC(C)Nc1nc2cc(Cl)c(Cl)cc2n2cnnc12	3.2 mg/kg	1000 nM	
CC(=O)N(C(C)=O)c1nc2ccccc2n2cnnc12	≤ 32 mg/kg		
CCc1nnc2c(NC(C)=O)nc3ccccc3n12	1 mg/kg		
CCc1nnc2c(N(CC)CC)nc3cc(F)c(F)cc3n12	3.2 mg/kg		
CCc1nnc2c(NC(C)=O)nc3ccc(F)cc3n12	≤ 3.2 mg/kg		
CCN(CC)c1nc2ccc(Cl)cc2n2c(-c3ccccc3)nnc12	> 32 mg/kg		
c1ccc2c(c1)nc(N1CCCC1)c1nncn12	> 32 mg/kg	50000 nM	
CCc1nnc2c(N3CCCC3=O)nc3ccccc3n12	> 32 mg/kg		
CCc1nnc2c(NC)nc3ccccc3n12	3.2 mg/kg	6000 nM	
CCc1nnc2c(NC(C)=O)nc3cc(Cl)c(Cl)cc3n12	≤ 3.2 mg/kg	1300 nM	
CCc1nnc2c(NC(C)=O)nc3ccc(Cl)cc3n12	1 mg/kg	1800 nM	
CCc1nnc2c(N(CC)CC)nc3ccc(Cl)cc3n12	≤ 32 mg/kg	6500 nM	
CCCC(=O)Nc1nc2ccc(Cl)cc2n2c(CC)nnc12	≤ 32 mg/kg		
Nc1nc2cc(Cl)ccc2n2cnnc12	≤ 32 mg/kg	1200 nM	210 nM
CCc1nnc2c(N(CC)CC)nc3ccc(F)cc3n12	10 mg/kg		
CCc1nnc2c(NCCO)nc3ccccc3n12	≤ 32 mg/kg	1600 nM	
Oc1cccc(C2=CSC3=Nc4ccccc4CN23)c1		18000 nM	530 nM

Compound	minimal effective dose (Rattus norvegicus)	IC50 (Adenosine receptor A1)	IC50 (Adenosine A2 receptor)
CCc1nnc2c(N(C(C)=O)C(C)C)nc3ccc(Cl)cc3n12	10 mg/kg		
COc1ccc2c(c1)nc(NC(C)=O)c1nncn12	≤ 32 mg/kg		
CCNc1nc2ccccc2n2c(C(F)(F)F)nnc12	32 mg/kg		
CCc1nnc2c(N(CC)CC)nc3cc(Cl)c(Cl)cc3n12	3.2 mg/kg	100000 nM	
CN(C)c1nc2ccccc2n2cnnc12	≤ 32 mg/kg	59000 nM	
Nc1nc2ccccc2n2cnnc12	3.2 mg/kg	4600 nM	400 nM
CCc1nnc2c(NC(C)C)nc3ccc(F)cc3n12	3.2 mg/kg	180 nM	3900 nM
CCN(CC)c1nc2ccc(OC)cc2n2cnnc12	> 32 mg/kg		
CNc1nc2ccccc2n2cnnc12	32 mg/kg	100000 nM	
CCN(CC)c1nc2cc(Cl)ccc2n2cnnc12	32 mg/kg		
CCc1nnc2c(N)nc3cc(Cl)ccc3n12	≤ 3.2 mg/kg	75 nM	29 nM
CCN(CC)c1nc2cc(F)c(F)cc2n2cnnc12	3.2 mg/kg	5000 nM	
c1ccc2c(c1)nc(N1CCOCC1)c1nncn12	> 32 mg/kg		
COc1nnc2c(NC(C)C)nc3ccc(Cl)cc3n12	≤ 32 mg/kg		
Nc1nc2ccc(F)cc2n2c(O)nnc12	10 mg/kg	840 nM	700 nM
Nc1nc2ccc(Cl)cc2n2cnnc12	10 mg/kg	3400 nM	>= 1 uM
CCc1nnc2c(NC3CCCCC3)nc3ccc(Cl)cc3n12	> 32 mg/kg	44 nM	4100 nM
Nc1nc2cc(Cl)c(Cl)cc2n2cnnc12	> 32 mg/kg		
CC(=O)Nc1nc2ccc(F)cc2n2c(C(F)(F)F)nnc12	≤ 3.2 mg/kg	3600 nM	
Nc1nc2cc(F)ccc2n2cnnc12	≤ 32 mg/kg	6100 nM	560 nM
CC(CO)Nc1nc2ccc(F)cc2n2cnnc12 (stereo not given)	> 32 mg/kg		
CCNc1nc2ccc(OC)cc2n2c(CC)nnc12	> 32 mg/kg	710 nM	4500 nM
CC(N)Cc1ccccc1.O=S(=O)(O)O (stereo not given) [AMPHETAMINE SULFATE]	< 1 mg/kg		
Nc1nc2ccc(Cl)cc2c2nc(-c3ccco3)nn12 [CGS-15943]	< 32 mg/kg		2.8 nM
CN(C)CCCN1c2ccccc2CCc2ccccc21 [IMIPRAMINE]	> 17.8 mg/kg		
